Patent US20180168208A1 (priority 2014, published 2018)
Like-named read-outs stand apart in the source and are kept apart here.

How the values were obtained:
[1] = target: T1, T1R1/T1R3 receptor (Felis catus, UniProt E3UMS2); assay: cell-based
Text: (§1) HEK293 cells that stably express T1R3 and inducibly express T1R1 were exposed to nucleotide derivatives alone to activate the umami receptor. Activation of the T1R1/T1R3 receptor was detected by a change in intracellular calcium levels using a calcium sensitive fluorescent dye. Cells that express T1R3 but not T1R1 were used as a control. A FLIPR® Tetra or a FlexStation® 3 was used for data capture.
as §1, with “alone or in combination with one or more amino acids and/or one or more nucleotides” for “alone”, “dye and/or a luminescent reporter system.” for “dye.”
as §1, with “transmembrane compounds” for “nucleotide derivatives”, “alone or in combination with one or more amino acids and/or one or more nucleotides” for “alone”
In each experiment, serial dilutions of up to 10 mM of the transmembrane compound were added to the T1R1/T1R3-expressing cells.

[2] = target: T1, T1R1/T1R3 receptor; assay: Example 8: agonist screening of transmembrane compounds on T1R1/T1R3 in HEK293 cells; format: cell-based, cat; settings: for agonist profile assessment (agonist activity): transmembrane compound alone; for T1R1/T1R3 agonist: transmembrane compound tested at 0.01, 0.1 and 1 mM, HEK293 cells expressing T1R1/T1R3, intracellular calcium
Protocol: (§2) HEK293 cells that stably express T1R3 and inducibly express T1R1 were exposed to a transmembrane compound. Activation of the T1R1/T1R3 receptor was detected by a change in intracellular calcium levels using a calcium sensitive fluorescent dye and/or a luminescent reporter system. […] A FLIPR® Tetra or a FlexStation® 3 was used for data capture.
Each transmembrane compound was tested at concentrations of 0.01 mM, 0.1 mM, and 1 mM. […] To generate the dose response curves, the transmembrane compound was tested at concentrations of between 0.0001 mM and 1.0 mM in the presence of GMP and Ala.

[3] = target: T1, T1R1/T1R3 receptor; assay: Example 8: PAM screening of transmembrane compounds with GMP and Ala on T1R1/T1R3 in HEK293 cells; format: cell-based, cat; settings: for PAM profile assessment (PAM activity): in the presence of GMP and Alanine; for T1R1/T1R3 PAM: compound at 0.01, 0.1 and 1 mM in combination with GMP+Ala mixtures (T1-T4), PAM if response greater than sum of compound alone and GMP+Ala alone
Text: as §2, with “to” for “to a”, “compound alone or in combination with Ala and GMP to activate the umami receptor.” for “compound.”
Dose response curves were generated for each transmembrane compound at concentrations of 0 (buffer only), 0.01, 0.1 and 1 mM, wherein each of the three concentrations of transmembrane compound was tested in combination with 0.03 mM GMP+100 mM Ala (T1); 0.6 mM GMP+10 mM Ala (T2); 0.1 mM GMP+60 mM Ala (T3) and 0.3 mM GMP+60 mM Ala (T4). The T4 mixture was also tested in a 2-fold dilution series (the T4(×) Concentration). In these experiments, the first test concentration was 2× (2 times) the T4 concentration. The subsequent test concentrations were 2-fold dilutions from that (1×, 0.5×etc.). This dilution series was tested with or without the addition of the test compound at a constant 0.3 mM concentration.
Activation of the umami receptor was also determined in the presence of 1 mM GMP+100 mM Ala to generate a “maximum” umami receptor activation level.

`O=C1CC(=O)N(Cc2ccccc2)C(=O)N1Cc1ccccc1` [1,3-dibenzylpyrimidine-2,4,6(1H,3H,5H)-trione] was tested, and the “Max resp % of IMP, +Alanine (20 mM)” value [1] was 42.7%, the “Thres (mM), +Alanine (20 mM)” value [1] was 0.1 mM and the EC50 ([1]; EC50 (mM), +Alanine (20 mM)) was 0.31 mM. It also gave an EC50 ([1]; EC50 (mM), +Alanine (20 mM) + IMP (0.2 mM)) of over 0.3 mM, an EC50 ([1]; EC50 (mM), +IMP (0.2 mM), in the presence of 0.2 mM IMP) of 0.52 mM and an EC50 ([1]; T1R1/T1R3 EC50 +0.2 mM IMP, +0.2 mM IMP) of 0.52 ± 0.19 mM. For the same molecule, the EC50 ([1]; T1R1/T1R3 EC50 +20 mM L-alanine) was 0.31 ± 0.05 mM, the EC50 ([1]; T1R1/T1R3 EC50 +20 mM L-alanine + 0.2 mM IMP) was over 0.3 mM and the EC50 ([1]; alone in buffer, read-out: T1R1/T1R3 EC50 alone in buffer) was 0.26 ± 0.01 mM. For the same molecule, the EC50 ([1]; compound alone in buffer, read-out: EC50 (mM), +buffer (alone)) was 0.26 mM, the “Max resp % of Ala, +IMP (0.2 mM)” value ([1]; in the presence of 0.2 mM IMP, relative to alanine) was 35.7% and the “Thres (mM), +IMP (0.2 mM)” value ([1]; threshold concentration in the presence of 0.2 mM IMP) was 0.1 mM. For the same molecule, the “agonist profile assessment (agonist activity)” value (shortened to “agonist profile assessment”) [2] was “agonist activity”.
`O=C(CN1C(=O)C(=O)N(Cc2ccccc2)C1=O)c1ccc2c(c1)OCCCO2` [1-benzyl-3-(2-(3,4-dihydro-2H-benzo[b][1,4]dioxepin-7-yl)-2-oxoethyl)imidazolidine-2,4,5-trione] was tested, and the “PAM profile assessment (PAM activity)” value [3] was “PAM activity”.
With `O=C(CN1C(=O)C(=O)N(Cc2ccccc2)C1=O)c1ccc(Cl)s1` [1-benzyl-3-(2-(5-chlorothiophen-2-yl)-2-oxoethyl)imidazolidine-2,4,5-trione] the “PAM profile assessment (PAM activity)” value [3] was “PAM activity”.
In the case of `COC(=O)[C@H](CC(C)C)NCc1ccccc1.Cl` [Benzyl-L-leucine methyl ester hydrochloride], the “agonist profile assessment” value [2] is reported as “agonist” and the “PAM profile assessment (PAM activity)” value [3] is reported as “PAM activity”.
With `O=C(CN1C(=O)C(=O)N(Cc2ccccc2)C1=O)c1ccccc1` [Formula 1, 1-benzyl-3-(2-oxo-2-phenylethyl)imidazolidine-2,4,5-trione] the T1R1/T1R3 agonist [2] was “No” and the “T1R1/T1R3 PAM” value [3] was “No”.
For `O=C(CN1C(=O)C(=O)N(Cc2ccccc2)C1=O)c1ccc2c(c1)CCC2` [Formula 2, 1-benzyl-3-(2-(2,3-dihydro-1H-inden-5-yl)-2-oxoethyl)imidazolidine-2,4,5-trione], the T1R1/T1R3 agonist [2] was “No” and the “T1R1/T1R3 PAM” value [3] was “No”.
In the case of `O=C(CN1C(=O)C(=O)N(Cc2ccccc2)C1=O)c1ccc(Br)cc1` [Formula 3, 1-benzyl-3-(2-(4-bromophenyl)-2-oxoethyl)imidazolidine-2,4,5-trione], the T1R1/T1R3 agonist [2] is reported as “No” and the “T1R1/T1R3 PAM” value [3] is reported as “No”.
In the case of `O=C(CN1C(=O)C(=O)N(Cc2ccccc2)C1=O)c1ccc2c(c1)OCCO2` [Formula 4, 1-benzyl-3-(2-(2,3-dihydrobenzo[b][1,4]dioxin-6-yl)-2-oxoethyl)imidazolidine-2,4,5-trione], the T1R1/T1R3 agonist [2] is reported as “No” and the “T1R1/T1R3 PAM” value [3] is reported as “No”.
With `COc1ccc(C(=O)CN2C(=O)C(=O)N(Cc3ccccc3)C2=O)c(OC)c1` [Formula 5, 1-benzyl-3-(2-(2,4-dimethoxyphenyl)-2-oxoethyl)imidazolidine-2,4,5-trione] the T1R1/T1R3 agonist [2] was “No” and the “T1R1/T1R3 PAM” value [3] was “No”.
With `O=C(CN1C(=O)C(=O)N(CCc2cccs2)C1=O)c1ccccc1` [Formula 6, 1-(2-oxo-2-phenylethyl)-3-(2-(thiophen-2-yl)ethyl)imidazolidine-2,4,5-trione] the T1R1/T1R3 agonist [2] was “No” and the “T1R1/T1R3 PAM” value [3] was “No”.
In the case of `O=C(CN1C(=O)C(=O)N(CCc2cccs2)C1=O)c1ccc2c(c1)OCO2` [Formula 7, 1-(2-(benzo[d][1,3]dioxol-5-yl)-2-oxoethyl)-3-(2-(thiophen-2-yl)ethyl)imidazolidine-2,4,5-trione], the T1R1/T1R3 agonist [2] is reported as “No” and the “T1R1/T1R3 PAM” value [3] is reported as “No”.
In the case of `O=C(CN1C(=O)C(=O)N(Cc2ccccc2)C1=O)c1ccc2c(c1)OCCCO2` [Formula 8, 1-benzyl-3-(2-(3,4-dihydro-2H-benzo[b][1,4]dioxepin-7-yl)-2-oxoethyl)imidazolidine-2,4,5-trione], the T1R1/T1R3 agonist [2] is reported as “No” and the “T1R1/T1R3 PAM” value [3] is reported as “Weak PAM”.
For `N#Cc1cccc(NC(=O)CN2C(=O)C(=O)N(Cc3ccccc3)C2=O)c1` [Formula 9, 2-(3-benzyl-2,4,5-trioxoimidazolidin-1-yl)-N-(3-cyanophenyl)acetamide], the T1R1/T1R3 agonist [2] was “No” and the “T1R1/T1R3 PAM” value [3] was “No”.
For `COc1ccccc1C(=O)CN1C(=O)C(=O)N(Cc2cccs2)C1=O` [Formula 10, 1-(2-(2-methoxyphenyl)-2-oxoethyl)-3-(thiophen-2-ylmethyl)imidazolidine-2,4,5-trione], the T1R1/T1R3 agonist [2] was “No” and the “T1R1/T1R3 PAM” value [3] was “No”.
In the case of `O=C(CN1C(=O)C(=O)N(CCc2cccs2)C1=O)c1cccc2ccccc12` [Formula 11, 1-(2-(naphthalen-1-yl)-2-oxoethyl)-3-(2-(thiophen-2-yl)ethyl)imidazolidine-2,4,5-trione], the T1R1/T1R3 agonist [2] is reported as “No” and the “T1R1/T1R3 PAM” value [3] is reported as “No”.
`O=C(CN1C(=O)C(=O)N(Cc2ccccc2)C1=O)c1ccc(Cl)s1` [Formula 12, 1-benzyl-3-(2-(5-chlorothiophen-2-yl)-2-oxoethyl)imidazolidine-2,4,5-trione] was tested, and the T1R1/T1R3 agonist [2] was “No” and the “T1R1/T1R3 PAM” value [3] was “Weak PAM”.
With `O=C1C(=O)N(Cc2ccccc2)C(=S)N1Cc1ccccc1` [Formula 13, 1,3-dibenzyl-2-thioxoimidazolidine-4,5-dione] the T1R1/T1R3 agonist [2] was “No” and the “T1R1/T1R3 PAM” value [3] was “No”.
In the case of `CCCC(CCC)NC(=O)c1ccc2c(c1)OCO2` [Formula 14, N-(heptan-4-yl)benzo[d][1,3]dioxole-5-carboxamide], the T1R1/T1R3 agonist [2] is reported as “Yes” and the “T1R1/T1R3 PAM” value [3] is reported as “Yes”.
For `COC(=O)[C@H](Cc1ccccc1)NCc1ccccc1.Cl` [Formula 15, N-Benzyl-L-phenylalanine methyl ester hydrochloride], the T1R1/T1R3 agonist [2] was “Yes” and the “T1R1/T1R3 PAM” value [3] was “Yes”.
In the case of `COC(=O)[C@@H](Cc1ccccc1)NCc1ccccc1.Cl` [Formula 16, N-Benzyl-D-Phenylalanine methyl ester hydrochloride], the T1R1/T1R3 agonist [2] is reported as “Yes” and the “T1R1/T1R3 PAM” value [3] is reported as “Yes”.
With `COC(=O)[C@H](CC(C)C)NCc1ccccc1.Cl` [Formula 18, Benzyl-L-leucine methyl ester hydrochloride] the T1R1/T1R3 agonist [2] was “Yes” and the “T1R1/T1R3 PAM” value [3] was “Yes”.
For `COC(=O)C(NCc1ccccc1)c1ccccc1` (stereo not shown) [Formula 19, Methyl-2-benzylamino-2-phenylacetate], the T1R1/T1R3 agonist [2] was “Yes” and the “T1R1/T1R3 PAM” value [3] was “Yes”.
`Cl.N[C@@H](Cc1ccccc1)C(=O)OCc1ccccc1` [Formula 20, L-Phenylalanine benzyl ester hydrochloride] was tested, and the T1R1/T1R3 agonist [2] was “Yes” and the “T1R1/T1R3 PAM” value [3] was “Yes”.
In the case of `N[C@@H](Cc1ccc(O)cc1)C(=O)OCc1ccccc1` [Formula 21, L-Tyrosine benzyl ester], the T1R1/T1R3 agonist [2] is reported as “No” and the “T1R1/T1R3 PAM” value [3] is reported as “No”.
For `O=C(O)[C@H](Cc1ccc(O)cc1)NCc1ccccc1` [Formula 22, N-Benzyl-L-Tyrosine], the T1R1/T1R3 agonist [2] was “No” and the “T1R1/T1R3 PAM” value [3] was “No”.
`Cc1ccc(CNC(Cc2ccccc2)C(=O)O)cc1` (stereo not shown) [Formula 23, 2-((4-methylbenzyl)amino)-3-phenylpropanoic acid] was tested, and the T1R1/T1R3 agonist [2] was “No” and the “T1R1/T1R3 PAM” value [3] was “No”.
For `O=C1CC(=O)N(Cc2ccccc2)C(=O)N1Cc1ccccc1` [Formula 24, 1,3-dibenzylpyrimidine-2,4,6(1H,3H,5H)-trione], the T1R1/T1R3 agonist [2] was “Yes” and the “T1R1/T1R3 PAM” value [3] was “No”.
With `Cl.N[C@@H](Cc1ccccc1)C(=O)OCc1ccccc1` [L-Phenylalanine benzyl ester hydrochloride] the “agonist profile assessment” value [2] was “agonist” and the “PAM profile assessment (PAM activity)” value [3] was “PAM activity”.
With `COC(=O)C(NCc1ccccc1)c1ccccc1` (stereo not shown) [Methyl-2-benzylamino-2-phenylacetate] the “agonist profile assessment” value [2] was “agonist” and the “PAM profile assessment (PAM activity)” value [3] was “PAM activity”.
